# pIC50: −log10 of the molar value.
# What was measured:
# [1] = biological target: CK1δ (Homo sapiens (Human), UniProt P48730); experiment: CK1δ kinase assay (Caliper LABCHIP electrophoretic separation of fluoresceinated peptide substrate and product); format: biochemical; conditions: 200 pM enzyme, 50 μM ATP, 22 hours at room temperature
# How it was run: (§1)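 Compounds, taken from 10 mM DMSO stocks, are titrated at eleven concentrations. Kinase reactions proceed for 22 hours at room temperature and are quenched with EDTA. Substrate and product are resolved electrophoretically, and IC50 values are fitted by non-linear regression.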
# [2] = biological target: CK1ε (Homo sapiens (Human), UniProt P49674); experiment: CK1ε kinase assay (Caliper LABCHIP electrophoretic separation of fluoresceinated peptide substrate and product); format: biochemical; conditions: 200 pM enzyme, 50 μM ATP, 22 hours at room temperature
# How it was run: as §1
# Sequence of CK1δ (P48730 whole entry): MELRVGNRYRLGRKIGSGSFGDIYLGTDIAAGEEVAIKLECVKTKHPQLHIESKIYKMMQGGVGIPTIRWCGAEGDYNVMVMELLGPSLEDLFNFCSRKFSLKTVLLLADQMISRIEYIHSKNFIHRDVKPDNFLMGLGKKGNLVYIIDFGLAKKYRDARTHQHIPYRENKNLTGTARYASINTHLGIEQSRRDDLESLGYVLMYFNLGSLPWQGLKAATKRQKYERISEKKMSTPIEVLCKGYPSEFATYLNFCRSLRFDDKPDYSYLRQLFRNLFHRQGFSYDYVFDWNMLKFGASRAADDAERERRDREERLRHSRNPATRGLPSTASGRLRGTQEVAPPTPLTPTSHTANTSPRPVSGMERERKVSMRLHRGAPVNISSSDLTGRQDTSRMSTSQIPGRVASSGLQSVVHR
# Sequence of CK1ε (P49674 whole entry): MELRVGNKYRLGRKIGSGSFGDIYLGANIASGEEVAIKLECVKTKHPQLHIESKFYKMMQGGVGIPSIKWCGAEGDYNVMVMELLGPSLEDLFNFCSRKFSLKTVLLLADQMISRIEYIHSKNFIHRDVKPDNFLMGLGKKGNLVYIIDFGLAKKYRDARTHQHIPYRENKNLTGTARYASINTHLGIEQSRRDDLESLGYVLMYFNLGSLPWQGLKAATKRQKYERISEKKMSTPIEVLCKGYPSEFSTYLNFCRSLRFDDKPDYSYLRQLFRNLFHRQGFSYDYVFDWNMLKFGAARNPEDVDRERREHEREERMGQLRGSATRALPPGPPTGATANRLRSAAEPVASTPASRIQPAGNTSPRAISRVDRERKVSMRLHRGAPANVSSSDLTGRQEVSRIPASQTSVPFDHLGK
pIC50 [1],pIC50 [2],SMILES
8.46,7.31,"Cc1nc(-c2ccc(F)cc2)c(-c2ccc3nc(NC(=O)c4coc(-c5ccncc5)n4)cn3n2)n1C [Compound 304, N-(6-(4-(4-fluorophenyl)-1,2-dimethyl-1H-imidazol-5-yl)imidazo[1,2-b]pyridazin-2-yl)-2-(pyridin-4-yl)oxazole-4-carboxamide]"
9.49,8.28,"Cc1nc(-c2ccncc2)sc1C(=O)Nc1cn2nc(-c3c(-c4ccc(F)cc4)nc(C)n3C)ccc2n1 [Compound 308, N-(6-(4-(4-fluorophenyl)-1,2-dimethyl-1H-imidazol-5-yl)imidazo[1,2-b]pyridazin-2-yl)-4-methyl-2-(pyridin-4-yl) thiazole-5-carboxamide]"
8.99,8.08,"Cc1nc(-c2ccc(F)cc2)c(-c2ccc3nc(NC(=O)c4cnc5ccccc5n4)cn3n2)n1C [Compound 310, N-(6-(4-(4-fluorophenyl)-1,2-dimethyl-1H-imidazol-5-yl)imidazo[1,2-b]pyridazin-2-yl) quinoxaline-2-carboxamide]"
7.47,7.33,"Cc1nc(-c2ccc(F)cc2)c(-c2ccc3nc(NC(=O)c4cc5ccccc5cn4)cn3n2)n1C [Compound 311, N-(6-(4-(4-fluorophenyl)-1,2-dimethyl-1H-imidazol-5-yl)imidazo[1,2-b]pyridazin-2-yl) isoquinoline-3-carboxamide]"
8.08,7.71,"Cc1nc(-c2ccc(F)cc2)c(-c2ccc3nc(NC(=O)c4ccc5ncccc5n4)cn3n2)n1C [Compound 312, N-(6-(4-(4-fluorophenyl)-1,2-dimethyl-1H-imidazol-5-yl)imidazo[1,2-b]pyridazin-2-yl)-1,5-naphthyridine-2-carboxamide]"
9.16,8.72,"Cc1nc(-c2ccc(F)cc2)c(-c2ccc3nc(NC(=O)c4ccc5ccncc5c4)cn3n2)n1C [Compound 313, N-(6-(4-(4-fluorophenyl)-1,2-dimethyl-1H-imidazol-5-yl)imidazo[1,2-b]pyridazin-2-yl)isoquinoline-7-carbox-amide]"
9.32,8.51,"Cc1nc(-c2ccc(F)cc2)c(-c2ccc3nc(NC(=O)c4ccc(-n5cccn5)nc4)cn3n2)n1C [Compound 314, N-(6-(4-(4-fluorophenyl)-1,2-dimethyl-1H-imidazol-5-yl)imidazo[1,2-b]pyridazin-2-yl)-6-(1H-pyrazol-1-yl) nicotinamide]"
7.70,6.43,"Cc1nc(-c2ccc(F)cc2)c(-c2ccc3nc(NC(=O)[C@@H]4CCCN4)cn3n2)n1C [Compound 315, (S)-N-(6-(4-(4-fluorophenyl)-1,2-dimethyl-1H-imidazol-5-yl)imidazo[1,2-b]pyridazin-2-yl)pyrrolidine-2-carbox-amide]"
8.51,7.40,"Cc1nc(-c2ccc(F)cc2)c(-c2ccc3nc(NC(=O)[C@@H]4CC(F)(F)CN4)cn3n2)n1C [Compound 316, (S)-4,4-difluoro-N-(6-(4-(4-fluorophenyl)-1,2-dimethyl-1H-imidazol-5-yl)imidazo[1,2-b]pyridazin-2-yl)pyrrolidine-2-carboxamide]"
8.76,7.92,"Cc1nc(-c2ccc(F)cc2)c(-c2ccc3nc(NC(=O)c4cc5ccccc5[nH]4)cn3n2)n1C [Compound 319, N-(6-(4-(4-fluorophenyl)-1,2-dimethyl-1H-imidazol-5-yl)imidazo[1,2-b]pyridazin-2-yl)-1H-indole-2-carboxamide]"
9.56,8.73,"Cc1nc(-c2ccc(F)cc2)c(-c2ccc3nc(NC(=O)c4ccnc(F)c4)cn3n2)n1C [Compound 320, 2-fluoro-N-(6-(4-(4-fluoro-phenyl)-1,2-dimethyl-1H-imidazol-5-yl)imidazo[1,2-b]pyridazin-2-yl)isonicotin-amide]"
9.82,8.71,"Cc1nc(-c2ccc(F)cc2)c(-c2ccc3nc(NC(=O)c4ccc(F)nc4)cn3n2)n1C [Compound 321, 6-fluoro-N-(6-(4-(4-fluoro-phenyl)-1,2-dimethyl-1H-imidazol-5-yl)imidazo[1,2-b]pyridazin-2-yl)nicotinamide]"
9.33,8.32,"Cc1nc(-c2ccc(F)cc2)c(-c2ccc3nc(NC(=O)c4ccc(O)nc4)cn3n2)n1C [Compound 322, N-(6-(4-(4-fluorophenyl)-1,2-dimethyl-1H-imidazol-5-yl)imidazo[1,2-b]pyridazin-2-yl)-6-hydroxynicotinamide]"
9.46,8.72,"Cc1nc(-c2ccc(F)cc2)c(-c2ccc3nc(NC(=O)c4ccnc(N5CCOCC5)c4)cn3n2)n1C [Compound 324, N-(6-(4-(4-fluorophenyl)-1,2-dimethyl-1H-imidazol-5-yl)imidazo[1,2-b]pyridazin-2-yl)-2-morpholinoisonicotin-amide]"
9.49,8.84,"Cc1nc(-c2ccc(F)cc2)c(-c2ccc3nc(NC(=O)c4cccc(-c5cccnc5)c4)cn3n2)n1C [Compound 325, N-(6-(4-(4-fluorophenyl)-1,2-dimethyl-1H-imidazol-5-yl)imidazo[1,2-b]pyridazin-2-yl)-3-(pyridin-3-yl) benzamide]"
8.57,7.91,"Cc1cc[nH]c1C(=O)Nc1cn2nc(-c3c(-c4ccc(F)cc4)nc(C)n3C)ccc2n1 [Compound 326, N-(6-(4-(4-fluorophenyl)-1,2-dimethyl-1H-imidazol-5-yl)imidazo[1,2-b]pyridazin-2-yl)-3-methyl-1H-pyrrole-2-carboxamide]"
9.17,8.22,"Cc1nc(-c2ccc(F)cc2)c(-c2ccc3nc(NC(=O)c4cc5cnccc5[nH]4)cn3n2)n1C [Compound 327, N-(6-(4-(4-fluorophenyl)-1,2-dimethyl-1H-imidazol-5-yl)imidazo[1,2-b]pyridazin-2-yl)-1H-pyrrolo[3,2-c] pyridine-2-carboxamide]"
9.47,8.67,"Cc1nc(-c2ccc(F)cc2)c(-c2ccc3nc(NC(=O)c4cccc5ncccc45)cn3n2)n1C [Compound 328, N-(6-(4-(4-fluorophenyl)-1,2-dimethyl-1H-imidazol-5-yl)imidazo[1,2-b]pyridazin-2-yl)-5-quinolinecarboxamide]"
8.46,7.73,"Cc1nc(-c2ccc(F)cc2)c(-c2ccc3nc(NC(=O)c4ccc(-c5ccc(Cl)cc5)[nH]4)cn3n2)n1C [Compound 329, 5-(4-chlorophenyl)-N-(6-(4-(4-fluorophenyl)-1,2-di-methyl-1H-imidazol-5-yl)imidazo[1,2-b]pyridazin-2-yl)-1H-pyrrole-2-carboxamide]"
9.43,8.48,"Cc1nc(-c2ccc(F)cc2)c(-c2ccc3nc(NC(=O)c4cccc5cnccc45)cn3n2)n1C [Compound 330, N-(6-(4-(4-fluorophenyl)-1,2-dimethyl-1H-imidazol-5-yl)imidazo[1,2-b]pyridazin-2-yl)-5-isoquinoline-carboxamide]"
9.60,8.84,"Cc1nc(-c2ccc(F)cc2)c(-c2ccc3nc(NC(=O)c4cccc5ccncc45)cn3n2)n1C [Compound 331, N-(6-(4-(4-fluorophenyl)-1,2-dimethyl-1H-imidazol-5-yl)imidazo[1,2-b]pyridazin-2-yl)-8-isoquinoline-carboxamide]"
9.06,8.16,"Cc1nc(-c2ccc(F)cc2)c(-c2ccc3nc(NC(=O)c4cc5ccc(F)cc5[nH]4)cn3n2)n1C [Compound 332, 6-fluoro-N-(6-(4-(4-fluoro-phenyl)-1,2-dimethyl-1H-imidazol-5-yl)imidazo[1,2-b]pyridazin-2-yl)-1H-indole-2-carboxamide]"
8.88,8.48,"Cc1nc(-c2ccc(F)cc2)c(-c2ccc3nc(NC(=O)c4ccc(-c5ccccc5)[nH]4)cn3n2)n1C [Compound 333, N-(6-(4-(4-fluorophenyl)-1,2-dimethyl-1H-imidazol-5-yl)imidazo[1,2-b]pyridazin-2-yl)-5-phenyl-1H-pyrrole-2-carboxamide]"
9.08,9.02,"Cc1nc(-c2ccc(F)cc2)c(-c2ccc3nc(NC(=O)c4c[nH]c5ccncc45)cn3n2)n1C [Compound 334, N-(6-(4-(4-fluorophenyl)-1,2-dimethyl-1H-imidazol-5-yl)imidazo[1,2-b]pyridazin-2-yl)-1H-pyrrolo[3,2-c] pyridine-3-carboxamide]"
9.32,8.59,"Cc1nc(-c2ccc(F)cc2)c(-c2ccc3nc(NC(=O)c4ccns4)cn3n2)n1C [Compound 335, N-(6-(4-(4-fluorophenyl)-1,2-dimethyl-1H-imidazol-5-yl)imidazo[1,2-b]pyridazin-2-yl)-5-isothiazolecarboxamide]"
9.29,8.66,"Cc1nc(-c2ccc(F)cc2)c(-c2ccc3nc(NC(=O)c4ccc5ncccc5c4)cn3n2)n1C [Compound 336, N-(6-(4-(4-fluorophenyl)-1,2-dimethyl-1H-imidazol-5-yl)imidazo[1,2-b]pyridazin-2-yl)-6-quinolinecarboxamide]"
9.57,8.59,"Cc1nc(-c2ccc(F)cc2)c(-c2ccc3nc(NC(=O)c4ccc5cccnc5c4)cn3n2)n1C [Compound 337, N-(6-(4-(4-fluorophenyl)-1,2-dimethyl-1H-imidazol-5-yl)imidazo[1,2-b]pyridazin-2-yl)-7-quinolinecarboxamide]"
9.43,9.11,"Cc1c[nH]c(C(=O)Nc2cn3nc(-c4c(-c5ccc(F)cc5)nc(C)n4C)ccc3n2)c1 [Compound 338, N-(6-(4-(4-fluorophenyl)-1,2-dimethyl-1H-imidazol-5-yl)imidazo[1,2-b]pyridazin-2-yl)-4-methyl-1H-pyrrole-2-carboxamide]"
9.73,8.79,"Cc1nc(-c2ccc(F)cc2)c(-c2ccc3nc(NC(=O)c4ccc5cnccc5c4)cn3n2)n1C [Compound 339, N-(6-(4-(4-fluorophenyl)-1,2-dimethyl-1H-imidazol-5-yl)imidazo[1,2-b]pyridazin-2-yl)isoquinoline-6-carboxamide]"

# Reference: patent US9556179B2 (BRISTOL-MYERS SQUIBB COMPANY, priority 2012, dated 2017)
